In PubChem BioAssay (NCI) one finds TGI and GI50 data, which are given here for 27 molecules.

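Compound exposure: 48 hours, 5 concentrations, 96-well plates. Abbreviation: GI50, concentration required for 50% inhibition of growth. TGI: concentration producing complete growth inhibition.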

The first assay has as its system A549 NSCLC. The experiment in a line: DTP human tumour cell line panel, 48 h.
One may read the TGI as the concentration giving total growth inhibition. Low readings indicate more potent growth arrest, high ones less potent growth arrest. Molecule `CC1(Cl)C(=O)NC(=O)N(C2CC(N=[N+]=[N-])C(CO)O2)C1N=[N+]=[N-]` (stereo not drawn) had a TGI of over 100 µM.

In turn, `OCCC1(O)CCC(O)CC1` (stereo not drawn) had a TGI of over 100 µM.

Turning to `CCCCNC1=C(C(=O)OCC)C(=O)CO1`, the TGI is over 100 µM.

For orientation: GI50 means the concentration at which growth is held to half of that of the control. `CC(C)CC(=O)[O-].CC(C)CC(=O)[O-].N.N.N.N.[Co+3].[O-][Cl+3]([O-])([O-])[O-]`: the GI50 is over 100 µM and the TGI was over 100 µM.

The molecule `COC(=O)CC(=O)C[P+](c1ccccc1)(c1ccccc1)c1ccccc1` came in with a TGI of over 218 µM.

For the molecule `CCCCN(CCCC)C(=O)C(=O)C(C#N)c1ccc(C)cc1` (stereo not drawn), the TGI was over 100 µM.

Molecule `Cc1ccc(S(=O)(=O)C(CC(=O)N2CCCC2)C(=O)c2ccccc2)cc1` (stereo not drawn) registered a TGI of over 100 µM.

`CC1(C)CC(/C=C2/OC(=O)c3ccccc32)=C(C#N)C(=O)O1` registered a TGI of over 100 µM.

As to `Cc1nc2c(nc1Cl)nc(Oc1ccc(Cl)cc1)c1ccccc12`, the TGI was over 100 µM.

`CC(=O)Nc1ccccc1Sc1ccccc1` showed a TGI of over 100 µM.

`CC1OC(n2cc(F)c(=O)[nH]c2=O)CCC1O` (stereo not drawn): the TGI was over 100 µM.

Molecule `COC(=O)C[C@H]1CCC2(OCCO2)[C@]1(C)C(=O)OC` showed a TGI of over 100 µM.

`CCCCCCCCCC[C@@H](O)[C@@H]1CC[C@H]([C@H]2CC[C@@H]([C@@H](O)CCCCCCCCCC[C@H]3CC(CC(C)=O)C(=O)O3)O2)O1` (stereo partly drawn) came in with a TGI of 30.6 µM.

`CCOc1ccc2c(c1)[n+]([O-])c(S(=O)(=O)c1ccc(C)cc1)c(N)[n+]2[O-]`: the TGI is over 100 µM.

`CC12CC[C@@H](C(C)(C)O)C1[C@@H](O)CC1(C)C2CCC2[C@@]3(C)CC[C@H](O)C(C)(C)C3C(O)C[C@]21C` (stereo partly drawn) registered a total growth inhibition concentration (TGI) of 29.7 µM.

Molecule `CCOC(=O)NC(=O)c1cn(C2OC(COC(=O)CCCCCCCCC(=O)OCC3OC(n4cc(C(=O)NC(=O)OCC)c(=O)[nH]c4=O)C(O)C3O)C(O)C2O)c(=O)[nH]c1=O` (stereo not drawn) returned a TGI of over 100 µM.

`Cc1ccc(C)c(NC(=O)CC/C(=N\NC(=O)C(=O)NN)C(C)C(=O)c2ccc(O)cc2)c1` (stereo not drawn) yielded a TGI of over 100 µM.

The molecule `N=C1CSC2=NC3=C(CCC/C3=C\c3ccccc3)C(c3ccccc3)N12` (stereo not drawn) came in with a TGI of 19.1 µM.

Regarding `CCCCCCCCCCCC(=O)CC(=O)c1c(O)cccc1O`, the TGI stood at 33.1 µM.

For the molecule `Cc1cc2c(cc1C)[n+](=O)c(C(=O)CC(=O)C(=O)Nc1c(C(C)C)cccc1C(C)C)c(C)n2[O-]`, the TGI was over 100 µM.

The molecule `COc1ccc2cc1Oc1ccc(cc1)CC1c3cc(c(OC)cc3CCN1C)Oc1c3c(cc4c1C(C2)N(C)CC4)OCO3` (stereo not drawn) came in with a TGI of 30.6 µM.

In turn, `O=C1CNCCCN2CCN(CCCNCC(=O)Nc3ccc(cc3)S(=O)(=O)c3ccc(cc3)NC(=O)CNCCCN3CCN(CCCNCC(=O)Nc4ccc(cc4)S(=O)(=O)c4ccc(cc4)N1)CC3)CC2` registered a TGI of over 100 µM.

Consider `N#Cc1ccc(C#Cc2ccccc2C#CCCCCO)cc1`, for which the GI50 was 14.4 µM and the TGI was 27.9 µM.

With `O=NN(Cc1ccc(Cl)cc1)C(C(=O)O)c1ccccc1` (stereo not drawn), the TGI is over 100 µM.

In a further assay the test system is ACHN renal. The assay can be described thus: DTP human tumour cell line panel, 48 h.
Molecule `CC1(Cl)C(=O)NC(=O)N(C2CC(N=[N+]=[N-])C(CO)O2)C1N=[N+]=[N-]` (stereo not drawn) registered a TGI of over 100 µM.

As to `COc1ccc2ccc3c(c2c1)CN1CCc2cc(OC)c(OC)cc2C1C3` (stereo not drawn), the TGI was over 100 µM.

Molecule `CCCCNC1=C(C(=O)OCC)C(=O)CO1` came in with a total growth inhibition concentration (TGI) of over 100 µM.

On to `CC(C)CC(=O)[O-].CC(C)CC(=O)[O-].N.N.N.N.[Co+3].[O-][Cl+3]([O-])([O-])[O-]`, for which the GI50 is over 100 µM and the TGI is over 100 µM.

For the molecule `COc1cc(C2c3cc4c(cc3C(NCC(O)CO)C3COC(=O)[C@H]23)OCO4)cc(OC)c1OC` (stereo partly drawn), the TGI was over 100 µM.

As to `COC(=O)CC(=O)C[P+](c1ccccc1)(c1ccccc1)c1ccccc1`, the TGI is over 218 µM.

Molecule `CCCCN(CCCC)C(=O)C(=O)C(C#N)c1ccc(C)cc1` (stereo not drawn) had a TGI of over 100 µM.

Regarding `Cc1ccc(S(=O)(=O)C(CC(=O)N2CCCC2)C(=O)c2ccccc2)cc1` (stereo not drawn), the concentration for total growth inhibition (TGI) was over 100 µM.

On to `CC1(C)CC(/C=C2/OC(=O)c3ccccc32)=C(C#N)C(=O)O1`, for which the TGI is over 100 µM.

`Cc1nc2c(nc1Cl)nc(Oc1ccc(Cl)cc1)c1ccccc12` had a TGI of over 100 µM.

In turn, `CC(=O)Nc1ccccc1Sc1ccccc1` came in with a TGI of over 100 µM.

In the case of `CC1OC(n2cc(F)c(=O)[nH]c2=O)CCC1O` (stereo not drawn), the TGI was over 100 µM.

With `COC(=O)C[C@H]1CCC2(OCCO2)[C@]1(C)C(=O)OC`, the TGI is over 100 µM.

The molecule `CCOc1ccc2c(c1)[n+]([O-])c(S(=O)(=O)c1ccc(C)cc1)c(N)[n+]2[O-]` registered a total growth inhibition concentration (TGI) of over 100 µM.

On to `CC12CC[C@@H](C(C)(C)O)C1[C@@H](O)CC1(C)C2CCC2[C@@]3(C)CC[C@H](O)C(C)(C)C3C(O)C[C@]21C` (stereo partly drawn), for which the TGI came to 29.1 µM.

Molecule `CCOC(=O)NC(=O)c1cn(C2OC(COC(=O)CCCCCCCCC(=O)OCC3OC(n4cc(C(=O)NC(=O)OCC)c(=O)[nH]c4=O)C(O)C3O)C(O)C2O)c(=O)[nH]c1=O` (stereo not drawn) returned a TGI of over 100 µM.

As for `Cc1ccc(C)c(NC(=O)CC/C(=N\NC(=O)C(=O)NN)C(C)C(=O)c2ccc(O)cc2)c1` (stereo not drawn), the TGI is over 100 µM.

On to `N=C1CSC2=NC3=C(CCC/C3=C\c3ccccc3)C(c3ccccc3)N12` (stereo not drawn), for which the concentration for total growth inhibition (TGI) stood at 24.8 µM.

Take `COc1ccccc1C1C(C(=O)Nc2ccccc2)=C(C)NC(C)=C1C(=O)Nc1ccccc1`: the TGI is over 100 µM.

As to `CCCCCCCCCCCC(=O)CC(=O)c1c(O)cccc1O`, the TGI stood at 35.2 µM.

`Cc1cc2c(cc1C)[n+](=O)c(C(=O)CC(=O)C(=O)Nc1c(C(C)C)cccc1C(C)C)c(C)n2[O-]`: the TGI was over 100 µM.

Consider `COc1ccc2cc1Oc1ccc(cc1)CC1c3cc(c(OC)cc3CCN1C)Oc1c3c(cc4c1C(C2)N(C)CC4)OCO3` (stereo not drawn), for which the TGI was 13.9 µM.

The molecule `O=C1CNCCCN2CCN(CCCNCC(=O)Nc3ccc(cc3)S(=O)(=O)c3ccc(cc3)NC(=O)CNCCCN3CCN(CCCNCC(=O)Nc4ccc(cc4)S(=O)(=O)c4ccc(cc4)N1)CC3)CC2` came in with a TGI of over 61.5 µM.

As to `N#Cc1ccc(C#Cc2ccccc2C#CCCCCO)cc1`, the GI50 was 19.1 µM and the TGI came out at 33.2 µM.

As for `O=NN(Cc1ccc(Cl)cc1)C(C(=O)O)c1ccccc1` (stereo not drawn), the TGI was over 100 µM.

A further assay relates to CAKI-1 renal. The assay can be described thus: DTP human tumour cell line panel, 48 h.
The molecule `CC1(Cl)C(=O)NC(=O)N(C2CC(N=[N+]=[N-])C(CO)O2)C1N=[N+]=[N-]` (stereo not drawn) showed a TGI of over 100 µM.

`COc1ccc2ccc3c(c2c1)CN1CCc2cc(OC)c(OC)cc2C1C3` (stereo not drawn) displayed a total growth inhibition concentration (TGI) of over 100 µM.

`CCCCNC1=C(C(=O)OCC)C(=O)CO1` registered a TGI of over 100 µM.

`COC(=O)CC(=O)C[P+](c1ccccc1)(c1ccccc1)c1ccccc1`: the TGI is over 218 µM.

As for `CCCCN(CCCC)C(=O)C(=O)C(C#N)c1ccc(C)cc1` (stereo not drawn), the TGI was over 100 µM.

`Cc1ccc(S(=O)(=O)C(CC(=O)N2CCCC2)C(=O)c2ccccc2)cc1` (stereo not drawn) showed a TGI of over 100 µM.

The molecule `CC1(C)CC(/C=C2/OC(=O)c3ccccc32)=C(C#N)C(=O)O1` displayed a TGI of over 100 µM.

On to `Cc1nc2c(nc1Cl)nc(Oc1ccc(Cl)cc1)c1ccccc12`, for which the TGI was over 100 µM.

Molecule `CC(=O)Nc1ccccc1Sc1ccccc1` came in with a TGI of over 100 µM.

`CC1OC(n2cc(F)c(=O)[nH]c2=O)CCC1O` (stereo not drawn) gave a TGI of over 100 µM.
